According to patent US20090203667A1, “PENTADIENAMIDE DERIVATIVES” (Kyowa Hakko Kirin Co., Ltd., priority 2006, published 2009):
Structures can show the parent of a compound that is named as a salt.

What was measured:
[1] = test system: entrapment nerve injury rat; assay: Neuropathic pain inhibitory activity in entrapment nerve injury rat (von Frey pain threshold); assay type: in vivo; conditions: orally administered, dose of 20 mg/kg or less, measured after 1 hour, von Frey filaments
Excerpt: Neuropathic Pain Inhibitory Activity of Compound in Entrapment Nerve Injury Rat
The method of Mosconi, Kruger et al. (Pain, vol. 64, pp. 37-57 (1996)) was modified partially and an entrapment nerve injury rat was produced.
By using a male Crl:CD(SD) rat, the sciatic nerve of the left hind limb was exfoliated under pentobarbital anesthesia, and the exfoliated region was covered with a polyethylene tube (trade name: Intramedic, size: PE-60, manufactured by Becton Dickinson and Company) with a length of 2 mm. On days 14 to 21 after the surgery, the rat was placed in a stainless-steel connected cage (750 mm (length)×210 mm (depth)×170 mm (height)) consisting of 5 cages connected in a row and having a mesh floor and was acclimated to the environment for at least 20 minutes, and then, the pain was evaluated.
The pain was evaluated using von Frey filaments (trade name: touch test sensory evaluator, Model number: model 58011, manufactured by Muromachi Kikai), and the results were calculated as a pain threshold. That is, by using a von Frey filament of different stimulation intensity, stimulation was given to the paw at the injured side of the entrapment nerve injury rat, and the stimulation intensity at which the paw was withdrawn was obtained. Then, the pain threshold (paw withdrawal threshold) (g) was calculated by the up down method of Dixon [Annual Review of Pharmacology and Toxicology, vol. 20, pp. 441-462 (1980)]. Incidentally, the pain threshold of a normal rat was from 10 to 12 g on an average.
In the evaluation of the test compound, a rat having a 50% pain threshold of less than 4 g was used, and the test compound was dissolved in a 0.5% aqueous methyl cellulose solution and orally administered at a dose of 5 mL/kg. After 1 hour, by using von Frey filaments, the pain threshold was measured.

[2] = target: T1, vanilloid receptor (TRPV1) (Rattus norvegicus, UniProt O35433); assay: [3H]Resiniferatoxin ([3H]RTX) binding experiment using rat spinal cord; conditions: rat spinal cord membrane specimen, 37° C., 60 minutes; read-out: IC50 of [3H]RTX specific binding
T1 construct: The spinal cord was extirpated from an SPF/VAF rat; from tissue; host or cells: rat spinal cord membrane specimen (SPF/VAF rat, Charles River Laboratories Japan Inc.)
Experimental: [^3H]Resiniferatoxin ([^3H]RTX) Binding Experiment Using Rat Spinal Cord
The spinal cord was extirpated from an SPF/VAF rat (Charles River Laboratories Japan Inc.) and homogenized in an ice-cooled homogenization buffer (10 mmol/L HEPES/NaOH, 5 mmol/L KCl, 5.8 mmol/L NaCl, 2 mmol/L MgCl2, 0.75 mmol/L CaCl2, 12 mmol/L glucose, 137 mmol/L sucrose, pH 7.4). The resulting homogenate was centrifuged at 1000 g for 10 minutes at 4° C. The supernatant was centrifuged at 35000 g for 30 minutes at 4° C. The obtained precipitate was suspended in the homogenization buffer. The suspension was used as a tissue membrane specimen, and the protein concentration was determined using a protein assay staining solution (Bio-Rad Laboratories, US). The thus prepared specimen was stored at −80° C.
The known method [The Journal of Pharmacology and Experimental Therapeutics, 267: 728-733 (1993)] was modified and the modified method was performed. 400 μL of a membrane specimen solution (protein amount: about 50 μg) obtained by diluting the prepared specimen with an assay buffer (10 mmol/L HEPES/NaOH, 5 mmol/L KCl, 5.8 mmol/L NaCl, 2 mmol/L MgCl2, 0.75 mmol/L CaCl2, 12 mmol/L glucose, 137 mmol/L sucrose, 0.25 mg/mL bovine serum albumin, pH 7.4), 50 μL of a test compound solution, and 50 μL of [^3H]RTX (PerkinElmer Life Sciences Inc., US) were mixed and the mixture was incubated at 37° C. for 60 minutes. The reaction mixture was transferred on ice, and 50 μL of previously ice-cooled 2 mg/mL α1 acid glycoprotein (Sigma) was added thereto, and then, the mixture was centrifuged at 12000 g for 15 minutes at 4° C. A procedure in which 0.4 mL of the assay buffer was added to the obtained precipitate and the mixture was centrifuged at 12000 g for 15 minutes at 4° C. was performed twice. The precipitate obtained by the centrifugation was suspended in 0.5 mL of a 0.1 mol/L aqueous NaOH solution. 7 mL of Ultima Gold (Packard, US) was added to the suspension, and the radioactivity of the solution was measured using a liquid scintillation counter (LS6500: Beckman Coulter, Inc., US or TRI-CARB 2700TR: Packard, US). The [^3H]RTX binding amount in the presence of 0.1 μmol/L RTX was considered to be non-specific binding, and the specific binding was calculated by subtracting this value from the total amount of [^3H]RTX binding to the membrane specimen. Then, the replacement amount of the [^3H]RTX specific binding in the presence of the compound to the [^3H]RTX specific binding amount in the absence of the compound was calculated in percent. The IC50 value of the compound in this experiment was obtained from a logistic equation.
The logistic equation was fit to the following equation (equation 205 in the program) in the curve regression program XLfit (IDBS Inc.).
Y: Inhibition ratio X: Concentration of test compound

T1 sequence (O35433 whole entry): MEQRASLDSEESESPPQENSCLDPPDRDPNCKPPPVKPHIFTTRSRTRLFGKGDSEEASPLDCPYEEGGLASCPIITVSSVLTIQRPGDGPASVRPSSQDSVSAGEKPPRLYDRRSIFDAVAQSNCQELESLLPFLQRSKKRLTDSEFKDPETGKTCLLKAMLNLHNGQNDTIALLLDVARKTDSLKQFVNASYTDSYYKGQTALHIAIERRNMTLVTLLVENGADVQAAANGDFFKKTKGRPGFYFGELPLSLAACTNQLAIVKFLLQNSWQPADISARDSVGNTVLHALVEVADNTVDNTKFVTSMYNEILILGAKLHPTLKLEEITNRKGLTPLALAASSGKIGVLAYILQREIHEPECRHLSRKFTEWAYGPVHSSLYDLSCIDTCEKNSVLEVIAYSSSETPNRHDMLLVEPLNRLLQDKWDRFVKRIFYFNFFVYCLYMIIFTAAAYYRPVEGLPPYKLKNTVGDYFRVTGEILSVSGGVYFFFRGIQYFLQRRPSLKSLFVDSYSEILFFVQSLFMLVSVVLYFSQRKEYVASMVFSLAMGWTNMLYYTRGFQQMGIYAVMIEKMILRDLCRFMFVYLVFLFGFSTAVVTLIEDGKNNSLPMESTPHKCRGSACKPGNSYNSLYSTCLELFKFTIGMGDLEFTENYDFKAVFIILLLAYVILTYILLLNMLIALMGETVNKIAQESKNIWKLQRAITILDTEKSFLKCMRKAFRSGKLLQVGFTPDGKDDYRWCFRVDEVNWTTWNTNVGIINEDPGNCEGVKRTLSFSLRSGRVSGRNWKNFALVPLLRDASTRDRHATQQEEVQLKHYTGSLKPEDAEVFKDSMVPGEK

CC(C)(C)Oc1ccc(/C(=C\C=C\C(=O)Nc2cccc3c2CC(O)C(=O)N3)c2ccc(C(F)(F)F)cc2)cc1 (stereo not drawn) [Compound 191, (2E,4Z)-5-(4-tert-Butoxyphenyl)-N-(3-hydroxy-2-oxo-1,2,3,4-tetrahydroquinolin-5-yl)-5-[4-(trifluoromethyl)phenyl]-2,4-pentadienamide]
pain threshold (paw withdrawal threshold) [1]: significantly increases the pain threshold | IC50 [2]: < 100 nM

O=C(/C=C/C=C(c1ccc(C(F)(F)F)cc1)c1ccc(C(F)(F)F)cc1)Nc1cccc2cnccc12 [Compound 11, (E)-N-(Isoquinolin-5-yl)-5,5-bis[4-(trifluoromethyl)phenyl]-2,4-pentadienamide]
IC50 [2]: < 100 nM | melting point: 164 to 166 °C

CN(C)c1ccc(/C(=C\C=C\C(=O)Nc2cccc3c2CC(O)CN3)c2ccc(C(F)(F)F)cc2)cc1.Cl.Cl (stereo not drawn) [Compound 270, (2E,4Z)-5-[4-(N,N-Dimethylamino)phenyl]-N-(3-hydroxy-1,2,3,4-tetrahydroquinolin-5-yl)-5-[4-(trifluoromethyl)phenyl]-2,4-pentadienamide Dihydrochloride]
pain threshold (paw withdrawal threshold) [1]: significantly increases the pain threshold | IC50 [2]: < 100 nM

O=C(/C=C/C=C(c1ccc(C(F)(F)F)cc1)c1ccc(C(F)(F)F)cc1)Nc1cncc(CO)c1 [Compound 25, (E)-N-[(5-Hydroxymethyl)pyridin-3-yl]-5,5-bis[4-(trifluoromethyl)phenyl]-2,4-pentadienamide]
IC50 [2]: < 100 nM | melting point: 255 to 257 °C

CCOc1ccc(/C(=C\C=C\C(=O)Nc2cccc3c2CC(O)CN3)c2ccc(C(F)(F)F)cc2)cc1 (stereo not drawn) [Compound 240, (2E,4Z)-5-(4-Ethoxyphenyl)-N-(3-hydroxy-1,2,3,4-tetrahydroquinolin-5-yl)-5-[4-(trifluoromethyl)phenyl]-2,4-pentadienamide monohydrochloride]
pain threshold (paw withdrawal threshold) [1]: significantly increases the pain threshold | IC50 [2]: < 100 nM

N#Cc1cccc(/C(=C\C=C\C(=O)Nc2cccc3cnccc23)c2ccc(C(F)(F)F)cc2)c1 [Compound 68, (2E,4Z)-5-(3-Cyanophenyl)-N-(isoquinolin-5-yl)-5-[4-(trifluoromethyl)phenyl]-2,4-pentadienamide]
IC50 [2]: < 100 nM | melting point: 118 to 119 °C

O=C(/C=C/C=C(\c1ccc(OC2COC2)cc1)c1ccc(C(F)(F)F)cc1)Nc1cccc2c1CC(O)C(=O)N2 (stereo not drawn) [Compound 314, (2E,4Z)-N-(3-Hydroxy-2-oxo-1,2,3,4-tetrahydroquinolin-5-yl)-5-[4-(oxetan-3-yloxy)phenyl]-5-[4-(trifluoromethyl)phenyl]-2,4-pentadienamide]
pain threshold (paw withdrawal threshold) [1]: significantly increases the pain threshold | IC50 [2]: < 100 nM

O=C(/C=C/C=C(c1ccc(C(F)(F)F)cc1)c1ccc(C(F)(F)F)cc1)Nc1cccc2ccc(O)cc12 [Compound 10, (E)-N-(7-Hydroxynaphthalen-1-yl)-5,5-bis[4-(trifluoromethyl)phenyl]-2,4-pentadienamide]
IC50 [2]: < 100 nM | melting point: 249 to 251 °C

O=C(/C=C/C=C(\c1ccc(F)cc1)c1ccc(C(F)(F)F)cc1)Nc1cccc2cnccc12 [Compound 74, (2E,4Z)-5-(4-Fluorophenyl)-N-(isoquinolin-5-yl)-5-[4-(trifluoromethyl)phenyl]-2,4-pentadienamide]
pain threshold (paw withdrawal threshold) [1]: significantly increases the pain threshold | IC50 [2]: < 100 nM | melting point: 142 to 143 °C

CCOc1ccc(/C(=C\C=C\C(=O)Nc2ccccc2C(O)CO)c2ccc(C(F)(F)F)cc2)cc1 (stereo not drawn) [Compound 163, (2E,4Z)-N-[2-(1,2-Dihydroxyethyl)phenyl]-5-(4-ethoxyphenyl)-5-[4-(trifluoromethyl)phenyl]-2,4-pentadienamide]
IC50 [2]: < 100 nM

O=C(/C=C/C=C(/c1ccc(C(F)(F)F)cc1)c1ccco1)Nc1cccc2cnccc12 [Compound 63, (2E,4Z)-5-(Furan-2-yl)-N-(isoquinolin-5-yl)-5-[4-(trifluoromethyl)phenyl]-2,4-pentadienamide]
pain threshold (paw withdrawal threshold) [1]: significantly increases the pain threshold

CC(C)Oc1ccc(/C(=C\C=C\C(=O)Nc2cccc3[nH]ncc23)c2ccc(C(F)(F)F)cc2)cc1 [Compound 178, (2E,4Z)-N-(1H-Indazol-4-yl)-5-(4-isopropoxyphenyl)-5-[4-(trifluoromethyl)phenyl]-2,4-pentadienamide]
pain threshold (paw withdrawal threshold) [1]: significantly increases the pain threshold | IC50 [2]: < 100 nM

Cc1cccc(/C(=C\C=C\C(=O)Nc2cccc3c2CC(O)C(=O)N3)c2ccc(C(F)(F)F)cc2)c1 (stereo not drawn) [Compound 188, (2E,4Z)-N-(3-Hydroxy-2-oxo-1,2,3,4-tetrahydroquinolin-5-yl)-5-(3-methylphenyl)-5-[4-(trifluoromethyl)phenyl]-2,4-pentadienamide]
pain threshold (paw withdrawal threshold) [1]: significantly increases the pain threshold | IC50 [2]: < 100 nM

CC(C)Oc1ccc(/C(=C\C=C\C(=O)Nc2cccc3c2CC(O)C(=O)N3)c2ccc(C(F)(F)F)cc2)cc1 (stereo not drawn) [Compound 229, (2E,4Z)-N-(3-Hydroxy-2-oxo-1,2,3,4-tetrahydroquinolin-5-yl)-5-(4-isopropoxyphenyl)-5-[4-(trifluoromethyl)phenyl]-2,4-pentadienamide]
pain threshold (paw withdrawal threshold) [1]: significantly increases the pain threshold | IC50 [2]: < 100 nM

O=C(/C=C/C=C(\c1ccccc1)c1ccc(C(F)(F)F)cc1)Nc1cccc2cnccc12 [Compound 59, (2E,4E)-N-(Isoquinolin-5-yl)-5-phenyl-5-[4-(trifluoromethyl)phenyl]-2,4-pentadienamide]
IC50 [2]: < 100 nM | melting point: 114 to 115 °C

CCOc1ccc(/C(=C\C=C\C(=O)Nc2cccc3c2CC(O)C(=O)N3)c2ccc(Cl)cc2)cc1 (stereo not drawn) [Compound 310, (2E,4E)-5-(4-Chlorophenyl)-5-(4-ethoxyphenyl)-N-(3-hydroxy-2-oxo-1,2,3,4-tetrahydroquinolin-5-yl)-2,4-pentadienamide]
pain threshold (paw withdrawal threshold) [1]: significantly increases the pain threshold | IC50 [2]: < 100 nM

CCOc1ccc(/C(=C\C=C\C(=O)Nc2cccc3c2CC(O)C(=O)N3)c2ccc(C(F)(F)F)cc2)cc1 (stereo not drawn) [Compound 257, (2E,4Z)-N-(3-Hydroxy-2-oxo-1,2,3,4-tetrahydroquinolin-5-yl)-5-(4-ethoxyphenyl)-5-[4-(trifluoromethyl)phenyl]-2,4-pentadienamide]
pain threshold (paw withdrawal threshold) [1]: significantly increases the pain threshold | IC50 [2]: < 100 nM
